{"source": "patent EP3263567A1", "about": "“CARBOXAMIDE-SUBSTITUTED PYRAZOLES AND TRI(HETERO)ARYL-PYRAZOLES FOR USE IN METHODS OF TREATING AND / OR PREVENTING CARDIOVASCULAR DISEASES AND / OR COMORBIDITIES THEREOF” (AiCuris Anti-infective Cures GmbH, priority 2016, dated 2018)", "key": {"[1]": {"test": "Solubility of compound A", "format": "physicochemical", "settings": "for solubility: aqueous media"}, "[2]": {"test_system": "Beagle dogs", "test": "4-week beagle dog experiment, toxicity observations", "format": "in vivo", "experimental": "[drawing 93] i.e. 4-[5-[3-Chloro-5-(trifluoromethoxy)phenyl]-1-(pyridin-3-yl)-1H-pyrazol-3-yl]-5,6-dihydro-7H-pyrrolo[3,4-d]pyrimidin-7-one, was administered in a 4-week beagle dog experiment with integrated non-invasive telemetric electrocardiography (ECG) measurements for determining its cardiovascular effects; specifically its effects on the heart rate.\n32 Beagle dogs (16 males and 16 females) with parameters in the normal range were tested for cardiovascular effects of Compound A administration and divided into the study groups indicated below.\nDuration of study: • 4 acclimatization weeks • 4 test weeks • 4 additional test weeks for the animals scheduled for the recovery period.\nThe test compound A-formulation of the appropriate concentration was administered by oral administration at a constant administration volume/kg b.w.\n• Groups 1 and 4: Twice daily at an 8-hour interval for 28 consecutive days. • Groups 2 to 3: Once daily for 28 consecutive days.\nThe animals were observed individually before and after dosing at each time of dosing for any signs of behavioural changes, reaction to treatment or illness.\nKennel side observations included skin/fur, eyes, mucous membranes, respiratory and circulatory systems, somatomotor activity and behaviour patterns. The onset, intensity, and duration of any signs observed were recorded."}, "[3]": {"test": "10-day dose-range-finding study in dogs", "format": "in vivo", "experimental": "For the dog study, single dose data are available at 3, 30 and 100 mg/kg and repeated dose data (10 days of treatment) are available at 30, 100 and 2 x 50 mg/kg. At a single dose of 30 mg/kg, no further increase in exposure or Cmax is apparent. In the 10-day DRF study (LPT Study No. 31586) it was investigated whether after multiple dosing any accumulation would be apparent and therefore dose levels of 30 and 100 mg/kg were selected in this study. In addition, the highest daily dose (i.e. 100 mg/kg) was also administered as 50 mg/kg twice daily (8-h interval) to investigate possible beneficial effects of BID dosing on overall exposure."}}}
{"smiles": "O=C1NCc2c1ncnc2-c1cc(-c2cc(Cl)cc(OC(F)(F)F)c2)n(-c2cccnc2)n1", "note": "[Compound A, 4-[5-[3-Chloro-5-(trifluoromethoxy)phenyl]-1-(pyridin-3-yl)-1H-pyrazol-3-yl]-5,6-dihydro-7H-pyrrolo[3,4-d]pyrimidin-7-one]", "values": [{"measurement": "solubility", "setting": "[1]; pH 7.4, aqueous buffer", "result": "50 to 70", "unit": "µg/mL"}, {"measurement": "solubility", "setting": "[1]; simulated gastric fluid, pH 2.0", "result": 400, "unit": "µg/mL"}, {"measurement": "Solubility (test item description)", "setting": "[1]; description of the batch used in Example 3", "result": "soluble in water"}, {"measurement": "solubility in commonly used pharmaceutical excipients", "setting": "[1]; oils, cosolvents, surfactants", "result": "very low solubility"}, {"measurement": "mortality", "setting": "[2]; 3, 10 or 2 x 50 mg/kg b.w./day for 4 weeks, treatment and recovery period", "result": "None"}, {"measurement": "signs of systemic intolerance (behaviour, external appearance, faeces)", "setting": "[2]; 3, 10 or 2 x 50 mg/kg b.w./day oral for 4 weeks and 4-week recovery", "result": "No compound A-related signs of systemic intolerance"}, {"measurement": "eyes and auditory acuity", "setting": "[2]; 4 weeks", "result": "No changes or adverse effects"}, {"measurement": "haematology, clinical biochemistry, urinalysis, ophthamological and auditory examination, organ weights, bone marrow, histopathology", "setting": "[2]; 4 weeks", "result": "No compound A-related influences"}, {"measurement": "macroscopic inspection at necropsy", "setting": "[2]; 4 weeks", "result": "did not reveal any morphological changes"}, {"measurement": "histopathological examination", "setting": "[2]; end of main study and of 4-week recovery period", "result": "did not reveal any Compound A-related morphological changes"}, {"measurement": "body weight and body weight gain; food and drinking water consumption", "setting": "[2]; treatment period", "result": "No compound A-related influence"}, {"measurement": "exposure on split dosing", "setting": "[3]; 100 mg/kg as 2 x 50 mg/kg 8 hours apart", "result": "small increase in exposure"}, {"measurement": "test item related findings", "setting": "[3]; 30, 100 and 2 x 50 mg/kg, 10 days", "result": "No clear and consistent test item related findings"}, {"measurement": "exposure on dose increase", "setting": "[3]; 30 to 100 mg/kg, 10 days", "result": "did not reveal a further increase in exposure"}]}
